Measured values: article PMC7251097, “Aspartate/asparagine-β-hydroxylase: a high-throughput mass spectrometric assay for discovery of small molecule inhibitors” (Scientific Reports, 2020)
Structures can show the parent of a compound that is named as a salt. Where two headings read alike, the source gives them in different places. Blank lines part the entries; values can stand above or below the molecule they belong to. Residues, ends and D or L forms follow the SMILES beside them. *: point of attachment. Cbz = O=C(OCc1ccccc1)*

Target: T1, His6-AspH315–758 (human aspartate/asparagine-β-hydroxylase, AspH) (Homo sapiens, UniProt Q12797)
T1 construct: N-Terminally His6-tagged human AspH315–758 (His6-AspH315–758) was produced in E. coli BL21 (DE3) cells; made in house; host or cells: E. coli BL21 (DE3), pET-28a(+) vector
T1 sequence (Q12797 315-758): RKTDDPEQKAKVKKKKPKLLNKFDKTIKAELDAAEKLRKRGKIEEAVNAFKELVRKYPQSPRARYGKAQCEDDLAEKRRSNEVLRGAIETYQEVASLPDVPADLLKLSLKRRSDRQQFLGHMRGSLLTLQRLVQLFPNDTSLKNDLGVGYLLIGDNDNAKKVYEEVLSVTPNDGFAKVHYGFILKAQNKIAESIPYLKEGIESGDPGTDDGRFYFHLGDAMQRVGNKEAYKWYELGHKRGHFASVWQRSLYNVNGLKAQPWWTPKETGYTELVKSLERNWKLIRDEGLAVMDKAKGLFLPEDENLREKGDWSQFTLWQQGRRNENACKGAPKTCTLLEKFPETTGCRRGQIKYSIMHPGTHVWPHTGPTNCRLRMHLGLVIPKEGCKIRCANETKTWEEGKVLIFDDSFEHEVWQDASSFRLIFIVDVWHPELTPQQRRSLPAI
Test: SPE-MS AspH inhibition assay (LOPAC screen at fixed 20 μM and IC50 dose-response), hydroxylation of cyclic peptide hFX-CP101–119
Assay type: biochemical
Conditions: for inhibition at 20 µM: read-out: Plate 2 (% inhibition); for IC50: 50 nM His6-AspH315–758, 1.0 μM hFX-CP101–119, 3 μM 2OG, 2 μM Fe(II), 50 mM HEPES pH 7.5, 20 °C, mean ± SD, n = 2 (2,4-PDCA n = 10), read-out: IC50

[1] = LOPAC Plate 4, compound at 20 uM, substrate conversion
[2] = LOPAC compound at 20uM, plate 3, conversion of substrate peptide
[3] = LOPAC compound at fixed 20 uM, plate 1, normalised to DMSO and 2,4-PDCA controls
[4] = LOPAC compound at fixed 20 uM, substrate conversion, plate 1
[5] = LOPAC compound at 20uM, plate 2, conversion of substrate peptide
[6] = LOPAC compound at 20uM, plate 2, normalised to DMSO and 2,4-PDCA controls
[7] = LOPAC Plate 4, compound at 20 uM

% conversion [1]: 30.62%
Structure (SMILES): N[C@H](C(=O)O)[C@H](Cc1ccccc1)C(=O)O [L-Beta-threo-benzyl-aspartate]

Plate 1 (% inhibition) [3]: 3.50% | Plate 1 (% conversion) [4]: 34.70%
Structure (SMILES): CCCCS(=N)(=O)CC[C@H](N)C(=O)O (stereo partly drawn) [L-Buthionine-sulfoximine]

Plate 1 (% inhibition) [3]: -2.43% | Plate 1 (% conversion) [4]: 36.69%
Structure (SMILES): N[C@H]1CON=C1O [L-Cycloserine]

Plate 1 (% inhibition) [3]: 8.76% | Plate 1 (% conversion) [4]: 32.93%
Structure (SMILES): N[C@@H](CS(=O)O)C(=O)O [L-Cysteinesulfinic Acid]

Plate 3 (% conversion) [2]: 7.53%
Structure (SMILES): N[C@H](C(=O)O)[C@H](O)c1ccc(O)c(O)c1 [L-DOPS]

Plate 2 (% conversion) [5]: 29.01% | Plate 2 (% inhibition) [6]: 20.74%
Structure (SMILES): Cl.N[C@@H](CCC(=O)O)C(=O)O [L-Glutamic acid hydrochloride]

Plate 2 (% conversion) [5]: 35.03% | inhibition at 20 µM [6]: 2.77%
Structure (SMILES): NC(=O)CC[C@H](N)C(=O)O [L-Glutamine]

Plate 3 (% conversion) [2]: 40.67%
Structure (SMILES): CC(=N)NCCCC[C@H](N)C(=O)O.Cl [L-N6-(1-Iminoethyl)lysine hydrochloride]

% conversion [1]: 29.06%
Structure (SMILES): N[C@@H](Cc1c[nH]c2ccccc12)C(=O)O [L-Tryptophan]

Plate 1 (% inhibition) [3]: 0.29% | Plate 1 (% conversion) [4]: 35.78%
Structure (SMILES): C=CC[C@H](N)C(=O)O [L-allylglycine]

Plate 3 (% conversion) [2]: 36.33%
Structure (SMILES): CSc1ccccc1N1CCN(CCCCCC(=O)NC2CCCc3ccccc32)CC1 (centres unmarked) [LP44]

% inhibition [7]: -43.43% | % conversion [1]: 51.29%
Structure (SMILES): Cl.O=C(CCCCCN1CCN(c2ccccc2-c2ccccc2)CC1)NC1CCCc2ccccc21 (centres unmarked) [LP 12 hydrochloride hydrate]

Plate 3 (% conversion) [2]: 36.38%
Structure (SMILES): CC(CCc1ccccc1)NCC(O)c1ccc(O)c(C(N)=O)c1 (centres unmarked) [Labetalol hydrochloride]

Plate 3 (% conversion) [2]: 33.75%
Structure (SMILES): Nc1nnc(-c2cccc(Cl)c2Cl)c(N)n1 [Lamotrigine]

Plate 3 (% conversion) [2]: 37.93%
Structure (SMILES): Cc1oncc1C(=O)Nc1ccc(C(F)(F)F)cc1 [Leflunomide]

Plate 1 (% inhibition) [3]: 25.41% | Plate 1 (% conversion) [4]: 27.34%
Structure (SMILES): COC(=O)C1=C(C)NC(C)=C(C(=O)OC(C)(C)CN(C)CCC(c2ccccc2)c2ccccc2)C1c1cccc([N+](=O)[O-])c1.COC(=O)C1=C(C)NC(C)=C(C(=O)OC(C)(C)CN(C)CCC(c2ccccc2)c2ccccc2)C1c1cccc([N+](=O)[O-])c1.Cl.Cl.O (centres unmarked) [Lercanidipine hydrochloride hemihydrate]

Plate 1 (% inhibition) [3]: -10.54% | Plate 1 (% conversion) [4]: 39.41% | Plate 5 (% inhibition) (plate 5 (Pfitzer), test compounds at fixed 20 μM): 44.21% | Plate 5 (% conversion) (plate 5 (Pfitzer), test compounds at fixed 20 μM, mean conversion DMSO 32.88): 21.27%
Structure (SMILES): CC(=O)NC[C@H]1CN(c2ccc(N3CCOCC3)c(F)c2)C(=O)O1 [Linezolid]

Plate 3 (% conversion) [2]: 41.24%
Structure (SMILES): O=C1N(c2ccccc2)c2ccccc2C1(Cc1ccncc1)Cc1ccncc1 [Linopirdine]

Plate 3 (% conversion) [2]: 37.37%
Structure (SMILES): CCn1cc(C(=O)O)c(=O)c2cc(F)c(N3CCNC(C)C3)c(F)c21 (centres unmarked) [Lomefloxacin hydrochloride]

Plate 3 (% conversion) [2]: 33.56%
Structure (SMILES): CCCCCN(CCCCC)C(=O)C(CCC(=O)O)NC(=O)c1ccc(Cl)c(Cl)c1 (centres unmarked) [Lorglumide sodium]

Plate 1 (% inhibition) [3]: -1.89% | Plate 1 (% conversion) [4]: 36.51%
Structure (SMILES): CCCCN(CCCC)CC(O)c1cc(Cl)cc2c1-c1ccc(Cl)cc1/C2=C/c1ccc(Cl)cc1 (centres unmarked) [Lumefantrine]

Plate 3 (% conversion) [2]: 33.83%
Structure (SMILES): CC(C)[C@H](NC(=O)OCc1ccccc1)C(=O)N[C@H](C=O)Cc1ccccc1 [MDL 28170] (Cbz-Val-Phe-aldehyde)

Plate 3 (% conversion) [2]: 29.92%
Structure (SMILES): CC[N+](CC)(CC)CCOc1ccc(/C=C/c2ccccc2)cc1 [MG 624]

IC50: 8.58 ± 1.93 µM | Inhibition at 20 µM [%] (AspH activity, fixed compound concentration 20 μM, initial LOPAC screen, 0.5%v/v DMSO): 99.9%
Structure (SMILES): CC(C)c1ccc2c(c1)c(SC(C)(C)C)c(CC(C)(C)C(=O)O)n2Cc1ccc(Cl)cc1 [MK-886, reference compound]

IC50: 4.65 ± 1.28 µM
Structure (SMILES): CN(C)CCCNC(=O)c1ccc(-c2cc(O)c3ncccc3c2)cc1 [ML324, reference compound]

Plate 3 (% conversion) [2]: 42.77%
Structure (SMILES): CNCCCC12CCC(c3ccccc31)c1ccccc12 [Maprotiline hydrochloride]

Plate 3 (% conversion) [2]: 34.21%
Structure (SMILES): CNC1(C)C2CCC(C2)C1(C)C (centres unmarked) [Mecamylamine hydrochloride]

Plate 3 (% conversion) [2]: 31.27%
Structure (SMILES): Cc1ccc(Cl)c(Nc2ccccc2C(=O)O)c1Cl [Meclofenamic acid sodium]

Plate 3 (% conversion) [2]: 33.11%
Structure (SMILES): Cc1cnc(NC(=O)C2=C(O)c3ccccc3S(=O)(=O)N2C)s1 [Meloxicam sodium]

Plate 3 (% conversion) [2]: 47.43%
Structure (SMILES): CN1C[C@H](CNC(=O)OCc2ccccc2)C[C@@H]2c3cccc4c3c(cn4C)C[C@H]21 [Metergoline]

Plate 3 (% conversion) [2]: 47.65%
Structure (SMILES): CSc1ccc2c(c1)C(N1CCN(C)CC1)Cc1ccccc1S2 (centres unmarked) [Methiothepin mesylate]

Plate 1 (% inhibition) [3]: -3.72% | Plate 1 (% conversion) [4]: 37.12%
Structure (SMILES): CN(Cc1cnc2nc(N)nc(N)c2n1)c1ccc(C(=O)N[C@@H](CCC(=O)O)C(=O)O)cc1.O [Methotrexate hydrate]

Plate 3 (% conversion) [2]: 35.20%
Structure (SMILES): CCN(CC)CCNC(=O)c1cc(Cl)c(N)cc1OC.Cl [Metoclopramide hydrochloride]

Plate 2 (% conversion) [5]: 34.23% | inhibition at 20 µM [6]: 5.16% | Plate 3 (% conversion) [2]: 30.85%
Structure (SMILES): Cc1ccccc1N1C(=O)c2cc(S(N)(=O)=O)c(Cl)cc2NC1C (centres unmarked) [Metolazone]

More lines, now with the values behind:

Structure (SMILES): O=C(c1ccc(F)cc1)C1CCN(CCn2c(=O)[nH]c3ccccc3c2=O)CC1 [Ketanserin tartrate]
% conversion [1]: 19.47%

Structure (SMILES): CC(=O)N1CCN(c2ccc(OCC3COC(Cn4ccnc4)(c4ccc(Cl)cc4Cl)O3)cc2)CC1 (centres unmarked) [Ketoconazole]
Plate 3 (% conversion): 46.43%

Structure (SMILES): CC(C(=O)O)c1cccc(C(=O)c2ccccc2)c1 (centres unmarked) [Ketoprofen]
Plate 3 (% conversion) [2]: 34.58%

Structure (SMILES): NC(CO)(CO)CO.O=C(c1ccccc1)c1ccc2n1CCC2C(=O)O (centres unmarked) [Ketorolac tris salt]
Plate 3 (% conversion) [2]: 36.01%

Structure (SMILES): NC[C@H](O)c1ccc(O)c(O)c1.O=C(O)C(O)C(O)C(=O)O [L(-)-Norepinephrine bitartrate]
Plate 1 (% inhibition) [3]: 89.51% | Plate 1 (% conversion) [4]: 5.81%

Structure (SMILES): N[C@@H](CCCC(=O)O)C(=O)O [L-2-aminoadipic acid]
Plate 1 (% inhibition) [3]: -2.85% | Plate 1 (% conversion) [4]: 36.83%

Structure (SMILES): N[C@@H](Cc1ccc(O)c(O)c1)C(=O)O [L-3,4-Dihydroxyphenylalanine]
Plate 2 (% conversion) [5]: 10.03% | Plate 2 (% inhibition) [6]: 77.43%

Structure (SMILES): Ic1ccccc1CNC1C2CCN(CC2)C1C(c1ccccc1)c1ccccc1.O=C(O)C(=O)O [L-703,606 oxalate salt hydrate]
Plate 3 (% conversion): 12.64%

Structure (SMILES): N=C(N)NCCC[C@H](N)C(=O)O [L-Arginine]
Plate 1 (% conversion): 38.11% | Plate 1 (% inhibition): -6.68%

Structure (SMILES): N[C@@H](CC(=O)O)C(=O)O [L-Aspartic acid]
Plate 1 (% inhibition) [3]: -3.19% | Plate 1 (% conversion) [4]: 36.94%

Structure (SMILES): NC(N)=NOCC[C@H](N)C(=O)O.O=S(=O)(O)O [L-Canavanine sulfate]
Plate 1 (% conversion): 38.13% | Plate 1 (% inhibition): -6.73%

Structure (SMILES): N[C@@H](Cn1ccc(=O)c(O)c1)C(=O)O [L-Mimosine from Koa hoale seeds]
% conversion: 35.13% | % inhibition [7]: 3.94%

Structure (SMILES): N[C@@H](Cn1ccc(=O)c(O)c1)C(=O)O [L-Mimosine, reference compound]
IC50: 5.06 ± 0.28 µM

Structure (SMILES): C[C@](N)(Cc1ccc(O)cc1)C(=O)O [L-alpha-Methyl-p-tyrosine]
Plate 3 (% conversion): 32.12%

Structure (SMILES): O=C(O)[C@@H]1CCN1 [L-azetidine-2-carboxylic acid]
Plate 1 (% conversion): 39.44% | Plate 1 (% inhibition): -10.62%

Structure (SMILES): CC[C@@H](C(N)=O)N1CCCC1=O [Levetiracetam]
Plate 3 (% conversion): 34.85%

Structure (SMILES): [Cl-].[Li+] [Lithium Chloride]
Plate 2 (% conversion): 35.61% | Plate 2 (% inhibition) (20 µM): 1.04%

Structure (SMILES): Nc1nc2c(c(=O)[nH]1)C[C@@H](CCc1ccc(C(=O)N[C@@H](CCC(=O)O)C(=O)O)cc1)CN2.O [Lometrexol hydrate]
Plate 3 (% conversion): 27.08%

Structure (SMILES): CC1(N2CCC(n3c([C@@H]4CCCNC4)nc4ccccc43)CC2)CCCCCCC1 [MCOPPB]
Plate 5 (% conversion): 39.16% | Plate 5 (% inhibition): -8.35%

Structure (SMILES): CN1CC[C@]2(CCN3CCc4c(oc5ccccc45)[C@@H]3C2)N(C)C1=O.Cl [MK-912]
Plate 3 (% conversion) [2]: 38.39%

Structure (SMILES): O=[N+]([O-])/C=C/c1ccc2c(c1)OCO2 [MNS]
Plate 2 (% conversion) [5]: 25.80% | Plate 2 (% inhibition) [6]: 30.34%

Structure (SMILES): C[N+](C)(C)CC#CCOC(=O)Nc1cccc(Cl)c1.[Cl-] [McN-A-343]
Plate 1 (% inhibition) [3]: -1.57% | Plate 1 (% conversion) [4]: 36.40%

Structure (SMILES): CC(C)NCC(O)c1cc(O)cc(O)c1.CC(C)NCC(O)c1cc(O)cc(O)c1.O=S(=O)(O)O (centres unmarked) [Metaproterenol hemisulfate]
Plate 3 (% conversion) [2]: 40.68%

Structure (SMILES): COc1ccc(OC)c(C(O)C(C)N)c1 (centres unmarked) [Methoxamine hydrochloride]
Plate 3 (% conversion): 32.85%
